This is an account of results in patent US20230338337A1, “BIOMARKERS FOR CANCER THERAPY USING MDM2 ANTAGONISTS” (OTSUKA PHARMACEUTICAL CO., LTD., priority 2019, published 2023).

Like-named read-outs stand apart in the source and are kept apart here.

One may read the IC50 as the midpoint of a concentration-inhibition curve.

Assay [1] deals with MDM2-p53 interaction (in vitro translated MDM2) (Homo sapiens (Human), UniProt Q00987). As to the kind of experiment: MDM2-p53 interaction 96-well plate binding assay (ELISA). The settings on record: for MDM2 % inhibition at 0.0010: at 0.0010 μM; for MDM2 % inhibition at 0.030: at 0.030 μM.
MDM2-p53 interaction (in vitro translated MDM2), sequence (Q00987 whole entry): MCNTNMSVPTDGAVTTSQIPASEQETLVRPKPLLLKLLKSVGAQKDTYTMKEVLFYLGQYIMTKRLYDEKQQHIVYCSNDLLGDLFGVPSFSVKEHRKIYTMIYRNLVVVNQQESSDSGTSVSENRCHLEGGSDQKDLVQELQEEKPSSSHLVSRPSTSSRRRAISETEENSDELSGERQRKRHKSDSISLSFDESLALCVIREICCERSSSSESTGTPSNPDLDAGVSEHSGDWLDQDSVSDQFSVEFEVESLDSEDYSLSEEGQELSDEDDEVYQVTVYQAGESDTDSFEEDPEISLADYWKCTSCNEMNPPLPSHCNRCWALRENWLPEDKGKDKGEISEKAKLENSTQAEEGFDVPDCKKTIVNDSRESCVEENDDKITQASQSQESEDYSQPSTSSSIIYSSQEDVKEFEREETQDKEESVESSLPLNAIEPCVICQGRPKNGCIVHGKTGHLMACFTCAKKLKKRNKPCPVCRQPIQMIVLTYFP
The subject of assay [2] is SJSA-1 (p53 wild-type, MDM2 amplified osteosarcoma). In words: Protocol A: SRB growth inhibition assay. The settings on record: read-out: SJSA-1 IC50 (μM) (Protocol A).
In another assay the test system is SJSA-1. In words: Protocol B: CellTiter-Glo cell viability assay. The conditions noted are these: read-out: SJSA1 IC50 (μM) (Protocol B); Protocol B. Background: Cellular ATP, detected with luciferase, serves as a proxy for viable cell number.

“1-({[(1R)-1-(4-chlorophenyl)-2-[(4-chlorophenyl)methyl]-5-(2-hydroxypropan-2-yl)-3-oxo-2,3-dihydro-1H-isoindol-1-yl]oxy}methyl)cyclopropane-1-carboxylic acid [Example 5]”: the values for the IC50 in assay [1] (read-out: MDM2 IC50) and in assay [2] were 0.0038 µM and 0.2 µM, respectively. With “1-({[(1R)-5-[1-(1-acetylpiperidin-4-yl)-1-hydroxyethyl]-1-(4-chlorophenyl)-2-[(5-chloropyridin-2-yl)methyl]-7-fluoro-3-oxo-2,3-dihydro-1H-isoindol-1-yl]oxy}methyl)cyclopropane-1-carbonitrile [Example 301]”, the “MDM2 % at concentration” value in assay [1] is recorded as 75%@0.0010. For the same substance, in assay [2], the IC50 was 0.07 µM. As to “2-{[(1R)-1-(4-chlorophenyl)-1-[(1-cyanocyclopropyl)methoxy]-7-fluoro-5-[1-(4-fluoro-1-methylpiperidin-4-yl)-1-hydroxypropyl]-3-oxo-2,3-dihydro-1H-isoindol-2-yl]methyl}pyrimidine-5-carbonitrile [Example 574]”, in assay [1], the “MDM2 % inhibition at 0.0010” value came out at 45%@0.0010. Further, the IC50 in assay [2] turned out to be 0.021 µM. Taken in the same sequence, the figures for “2-{[(1R)-1-(4-chlorophenyl)-7-fluoro-5-[(1S)-1-hydroxy-1-(1-methylpiperidin-4-yl)propyl]-3-oxo-1-[(3S)-oxolan-3-yloxy]-2,3-dihydro-1H-isoindol-2-yl]methyl}pyrimidine-5-carbonitrile [Example 557]” were 81%@0.0010 and 0.25 µM. For the substance “2-{[(1R)-1-(4-chlorophenyl)-7-fluoro-5-{1-hydroxy-1-[trans-4-hydroxycyclohexyl]propyl}-1-methoxy-3-oxo-2,3-dihydro-1H-isoindol-2-yl]methyl}pyrimidine-5-carbonitrile [Example 504]”, the “MDM2 % inhibition at 0.0010” value in assay [1] is 71%@0.0010. Further, the IC50 in assay [2] came out at 0.039 µM.

With “5-{[(1R)-1-(4-chlorophenyl)-7-fluoro-5-[1-hydroxy-1-(1-methyl-1H-imidazol-4-yl)propyl]-3-oxo-1-[(3S)-oxolan-3-yloxy]-2,3-dihydro-1H-isoindol-2-yl]methyl}pyridine-2-carbonitrile [Example 431]”, the “MDM2 % inhibition at 0.0010” value in assay [1] was found to be 48%@0.0010. In assay [2], the IC50 amounted to 0.11 µM. The matching figures for “6-{[(1R)-1-(4-chlorophenyl)-7-fluoro-3-oxo-1-[(3S)-oxolan-3-yloxy]-5-[2,2,2-trifluoro-1-hydroxy-1-(1-methyl-1H-pyrazol-4-yl)ethyl]-2,3-dihydro-1H-isoindol-2-yl]methyl}pyridine-3-carbonitrile [Example 428]”: 65%@0.0010 and 0.11 µM.

Take “6-{[(1R)-1-(4-chlorophenyl)-7-fluoro-5-[1-(4-fluorooxan-4-yl)-1-hydroxypropyl]-1-[(2R)-2-hydroxypropoxy]-3-oxo-2,3-dihydro-1H-isoindol-2-yl]methyl}pyridine-3-carbonitrile [Example 497]”: the “MDM2 % inhibition at 0.0010” value in assay [1] was found to be 83%@0.0010. The IC50 in assay [2] was determined as 0.039 µM. Take “6-{[(1R)-1-(4-chlorophenyl)-7-fluoro-5-[1-hydroxy-1-(1-methyl-1H-imidazol-4-yl)propyl]-1-(2-methoxyethoxy)-3-oxo-2,3-dihydro-1H-isoindol-2-yl]methyl}pyridine-3-carbonitrile [Example 430]”: the “MDM2 % inhibition at 0.0010” value in assay [1] is recorded as 59%@0.0010. Also, the IC50 in assay [2] turned out to be 0.11 µM.

As to “6-{[(1R)-1-(4-chlorophenyl)-7-fluoro-5-{1-hydroxy-1-[trans-4-hydroxycyclohexyl]propyl}-1-methoxy-3-oxo-2,3-dihydro-1H-isoindol-2-yl]methyl}pyridine-3-carbonitrile [Example 521]”, the “MDM2 % inhibition at 0.0010” value in assay [1] is 77%@0.0010. The IC50 in assay [2] amounted to 0.035 µM. For “(2S)-3-{[(1R)-1-(4-Chlorophenyl)-2-[(5-chloropyridin-2-yl)methyl]-7-fluoro-5-(2-hydroxypropan-2-yl)-3-oxo-2,3-dihydro-1H-isoindol-1-yl]oxy}-2-methylpropanamide [Example 167]”, in assay [2], the IC50 came to 0.64 µM. Turning to “(3R)-2-[(5-chloro-3-hydroxypyridin-2-yl)methyl]-3-(4-chlorophenyl)-4-fluoro-6-[1-hydroxy-1-(1-methyl-1H-imidazol-4-yl)propyl]-3-[cis-3-hydroxycyclobutoxy]-2,3-dihydro-1H-isoindol-1-one [Example 487]”, the “MDM2 % inhibition at 0.0010” value in assay [1] was determined as 59%@0.0010. For the same substance, the IC50 in assay [2] worked out at 0.12 µM.

As for “(3R)-3-(4-chlorophenyl)-2-[(5-chloropyridin-2-yl)methyl]-4-fluoro-6-{1-hydroxy-1-[1-(2-hydroxyacetyl)piperidin-4-yl]ethyl}-3-methoxy-2,3-dihydro-1H-isoindol-1-one [Example 296]”, the “MDM2 % at concentration” value in assay [1] turned out to be 62%@0.0010. In assay [2], the IC50 was found to be 0.11 µM. On to “(3R)-3-(4-chlorophenyl)-2-[(5-chloropyrimidin-2-yl)methyl]-4-fluoro-3-[(3-fluorooxetan-3-yl)methoxy]-6-[2-hydroxy-1-(piperazin-1-yl)butan-2-yl]-2,3-dihydro-1H-isoindol-1-one [Example 538]”, for which the IC50 in the assay on SJSA-1 is 2.2 µM. Besides, the “MDM2 % inhibition at 0.030” value in assay [1] turned out to be 44%@0.030.

“(3R)-3-(4-chlorophenyl)-2-[(5-chloropyrimidin-2-yl)methyl]-4-fluoro-3-[(3-fluorooxetan-3-yl)methoxy]-6-[2-hydroxy-1-(piperazin-1-yl)butan-2-yl]-2,3-dihydro-1H-isoindol-1-one [Example 539]”: the concentration for half-maximal inhibition (IC50) in the assay on SJSA-1 stood at 0.092 µM. The “MDM2 % inhibition at 0.0010” value in assay [1] is given as 41%@0.0010.

In the case of “(3R)-3-(4-chlorophenyl)-2-[(5-chloropyrimidin-2-yl)methyl]-4-fluoro-6-[1-(4-fluoro-1-methylpiperidin-4-yl)-1-hydroxypropyl]-3-(2-hydroxyethoxy)-2,3-dihydro-1H-isoindol-1-one [Example 565]”, in assay [1], the “MDM2 % inhibition at 0.0010” value amounted to 65%@0.0010. Moreover, in assay [2], the IC50 was determined as 0.045 µM. On to “(3R)-3-(4-chlorophenyl)-2-[(5-chloropyrimidin-2-yl)methyl]-4-fluoro-6-[1-(4-fluoropiperidin-4-yl)-1-hydroxypropyl]-3-[(2R)-2-hydroxypropoxy]-2,3-dihydro-1H-isoindol-1-one [Example 543]”, for which the IC50 in the assay with SJSA-1 came to 0.69 µM. For the same substance, in assay [1], the “MDM2 % inhibition at 0.0010” value worked out at 68%@0.0010. “(3R)-3-(4-chlorophenyl)-2-[(5-chloropyrimidin-2-yl)methyl]-4-fluoro-6-[1-(4-fluoropiperidin-4-yl)-1-hydroxypropyl]-3-[(3S)-oxolan-3-yloxy]-2,3-dihydro-1H-isoindol-1-one [Example 540]”: the IC50 with SJSA-1 turned out to be 1.8 µM. In assay [1], the “MDM2 % inhibition at 0.030” value turned out to be 33%@0.030. Consider “(3R)-3-(4-chlorophenyl)-2-[(5-chloropyrimidin-2-yl)methyl]-4-fluoro-6-[1-(4-fluoropiperidin-4-yl)-1-hydroxypropyl]-3-[(3S)-oxolan-3-yloxy]-2,3-dihydro-1H-isoindol-1-one [Example 541]”, for which the “MDM2 % inhibition at 0.00030” value in assay [1] (at 0.00030 μM) came to 64%@0.0003. Besides, in assay [2], the IC50 was found to be 0.19 µM.

For the substance “(3R)-3-(4-chlorophenyl)-2-[(5-chloropyrimidin-2-yl)methyl]-4-fluoro-6-[1-(4-fluoropiperidin-4-yl)-1-hydroxypropyl]-3-[cis-3-hydroxycyclobutoxy]-2,3-dihydro-1H-isoindol-1-one [Example 542]”, the IC50 in the assay with SJSA-1 was 3.1 µM. Moreover, the “MDM2 % inhibition at 0.010” value in assay [1] (at 0.010 μM) is reported as 57%@0.010. Take “(3R)-3-(4-chlorophenyl)-2-[(5-chloropyrimidin-2-yl)methyl]-4-fluoro-6-[1-(4-fluoropiperidin-4-yl)-1-hydroxypropyl]-3-methoxy-2,3-dihydro-1H-isoindol-1-one [Example 544]”: in assay [1], the “MDM2 % inhibition at 0.0010” value was 86%@0.0010. In assay [2], the IC50 was 0.032 µM. As to “(3R)-3-(4-chlorophenyl)-2-[(5-chloropyrimidin-2-yl)methyl]-4-fluoro-6-[1-hydroxy-1-(1-methyl-1H-imidazol-4-yl)propyl]-3-[(3S)-oxolan-3-yloxy]-2,3-dihydro-1H-isoindol-1-one [Example 474]”, the IC50 with SJSA-1 came to 1.3 µM. Besides, the “MDM2 % inhibition at 0.030” value in assay [1] turned out to be 38%@0.030.

As for “(3R)-3-(4-chlorophenyl)-2-[(5-chloropyrimidin-2-yl)methyl]-4-fluoro-6-[1-hydroxy-1-(1-methyl-1H-imidazol-4-yl)propyl]-3-{[1-(hydroxymethyl)cyclopropyl]methoxy}-2,3-dihydro-1H-isoindol-1-one [Example 476]”, in the assay on SJSA-1, the IC50 amounted to 0.6 µM. Also, the “MDM2 % inhibition at 0.030” value in assay [1] amounted to 51%@0.030. The matching figures for “(3R)-3-(4-chlorophenyl)-2-[(5-chloropyrimidin-2-yl)methyl]-4-fluoro-6-{1-hydroxy-1-[trans-4-hydroxycyclohexyl]propyl}-3-(2-hydroxyethoxy)-2,3-dihydro-1H-isoindol-1-one [Example 519]”: 1.9 µM and 35%@0.030.

For “(3R)-3-(4-chlorophenyl)-4-fluoro-6-[1-hydroxy-1-(1-methyl-1H-pyrazol-4-yl)ethyl]-3-[(1-hydroxycyclopropyl)methoxy]-2-[(5-methoxypyridin-2-yl)methyl]-2,3-dihydro-1H-isoindol-1-one [Example 347]”, the IC50 with SJSA-1 was determined as 1.7 µM. In assay [1] (at 0.10 μM), the “MDM2 % at concentration” value is recorded as 63%@0.10. Turning to “(3R)-6-[1-(1-acetylpiperidin-4-yl)-1-hydroxyethyl]-2-{[5-chloro-3-(hydroxymethyl)pyridin-2-yl]methyl}-3-(4-chlorophenyl)-4-fluoro-3-methoxy-2,3-dihydro-1H-isoindol-1-one [Example 424]”, in the assay on SJSA-1, the IC50 was 0.69 µM. For the same substance, the “MDM2 % inhibition at 0.0030” value in assay [1] (at 0.0030 μM) is recorded as 45%@0.0030.
